Results published in patent EP1142883A1, “NOVEL HETEROCYCLIC COMPOUNDS AND DRUG COMPOSITIONS CONTAINING THE SAME” (Asahi Kasei Kabushiki Kaisha, priority 1998, dated 2000).

How the values were obtained:
human β3 = molecular target: T1, human β3 (Homo sapiens, UniProt P13945); test: Human β3-agonist activities: cAMP in CHO cells transfected with human β3 gene; type: cell-based; conditions: for EC50 / *Intrinsic Activity (%): cAMP, 30 minutes, CHO cells expressing human β3; for EC50: read-out: ED50 (the source's name); for *Intrinsic Activity (%): relative value as compared with isoproterenol; for Emax: CHO, read-out: *Intrinsic Activity (%)
T1 construct: the full length human β3 gene was obtained from a human genomic library; expressed in transfected cells; host or cells: CHO (Chinese hamster ovary) cells, pcDNA3 vector, geneticin selection
Description: Human β3-agonist activities were determined using CHO (Chinese hamster ovary) cells transfected with pcDNA3 (mfd. by Invitrogen) to which human β3 gene had been inserted. Human β3 fragment was first obtained from human adipose tissue cDNA (mfd. by Clonetech) by PCR using the primer of β3 (Krief, et al., J. Clin. Invest., 91, pp. 344-349 (1993)). The human β3 fragment obtained was then used as a probe and then the full length human β3 gene was obtained from a human genomic library (mfd. by Clonetech).
The above cells were cultured in a Ham F-12 medium supplemented with 10% fetal bovine serum (mfd. by Dainippon Pharmaceutical), 400 µg/mL geneticin (Gibco BRL), 100 U/mL penicillin and 100 µg/mL streptomycin. After placing these cells (5×10^5) into a 6-well plate and culturing them for 24 hours, they were allowed to stand on a serum-free Ham F-12 medium for 2 hours. The compound was first dissolved in DMSO, repeatedly diluted by ten times with Ham F-12 supplemented with 1 mM isobutylmethylxanthine and 1 mM ascorbic acid to a final concentration of 10^-5 to 10^-12 M, and then added to the cells.
After the cells were cultured for 30 minutes, the medium was removed followed by addition of 0.5 mL of 1 N NaOH. The medium was allowed to stand for 20 minutes and then 0.5 mL of 1 N acetic acid was added to the medium. The medium was stirred and centrifuged followed by quantitating cAMP with cAMP EIA kit (mfd. by Cayman). […]

Caco-2 cell = test: Permeability through human small intestine epithelium (Caco-2 cell layer); conditions: Caco-2 layer, cup side pH 6.5, base side pH 7.4, drug 20-40 µM, 37°C
Text: (§1) Human colon adenocarcinoma, Caco-2 cell, when cultured, spontaneously differenciates to form a cell layer consisting of a polar single layer having microvillus similar to small intestine epithelial cell. The presence of tight junction has been found out in the membrane formed. Therefore, the above cell layer can be used as a model system of human small intestine epithelium and is recognized as the simplest system to evaluate the permeability through a membrane of a drug orally administered to human. The specific experimental method is as follows.
(§2) Before the cells reached confluence, DMEM was removed and the flask was washed with PBS (phosphate buffered saline, pH 7.2, Ca, Mg free (Gibco BRL)) and treated with trypsin/EDTA to peel off the cells, which were then harvested.
(§3) After centrifugation (1000 rpm, 5 min), the cells were resuspended in DMEM at 4.4×10^5 cells/mL. The cells were seeded into Transwell cell culture chamber (mfd. by Costar) having a collagen-coated membrane filter (3 µm pores, 0.33 cm^2 growth area) at 0.15 mL/well (2×10^5 cells/cm^2, 24 well). After seeding, DMEM was renewed every other day. After culturing for 18 to 25 days, a membrane formed having a membrane resistance of at least 200 Ω · cm^2 was applied to the drug permeation experiment.
(§4) DMEMs in the cup side and base side of Transwell were removed and then replaced with a buffer for the permeation experiment (HBSS (Hanks Balanced Salt Solution, Gibco BRL), 10 mM Mes, pH 6.5 (mfd. by DOJINDO) or 10 mM Hepes, pH 7.4 (mfd. by DOJINDO) containing 25 mM glucose and 0.05% Tween 80). The cup side buffer (0.15 mL) was maintained at pH 6.5 and the base side buffer (0.8 mL) was maintained at pH 7.4. After pre-incubation at 37°C for 10 minutes, the cup side buffer was replaced with the buffer (pH 6.5) containing a drug (20-40 µM). With additionally incubating at 37°C, 80 µL aliquot of the base side buffer was sampled with the passage of time to quantitate the amount of the drug permeated into the base side buffer.
(§5) The amount of the drug contained in the base side buffer sampled with the passage of time was divided by the time to calculate the amount of the drug permeated per unit time (sec). It was then divided by the concentration of the drug added and the surface area of the membrane to calculate the permeability coefficient (Papp). That is, the permeability coefficient (Papp) is obtained by the following calculating formula.
(§6) In this connection, the quantitation of the drug was carried out with LC/MS or HPLC (detecting with fluorescence). The conditions of LC/MS and HPLC are as follows.

[1] = as above; conditions: human, Caco-2
Text: as §1, §2, §3, §4, §5, §6

T1 sequence (P13945 whole entry): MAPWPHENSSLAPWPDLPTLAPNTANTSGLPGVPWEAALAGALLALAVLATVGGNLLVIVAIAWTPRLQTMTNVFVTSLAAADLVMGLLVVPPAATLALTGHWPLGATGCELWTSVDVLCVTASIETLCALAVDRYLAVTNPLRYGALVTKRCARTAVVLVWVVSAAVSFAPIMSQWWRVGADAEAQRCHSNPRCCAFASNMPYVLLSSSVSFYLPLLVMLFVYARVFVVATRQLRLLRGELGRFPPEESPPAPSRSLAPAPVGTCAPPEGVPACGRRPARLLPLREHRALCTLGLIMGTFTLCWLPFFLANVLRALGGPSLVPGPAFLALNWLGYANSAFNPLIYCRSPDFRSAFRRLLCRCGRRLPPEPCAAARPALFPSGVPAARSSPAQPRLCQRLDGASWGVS

| *Intrinsic Activity (%) (human β3) | Permeability Coefficient Papp × 10^-6 (cm/s) (Caco-2 cell) | Compound | EC50 (human β3) [nM] | Emax (human β3) [%] | Papp A→B [1] [×10⁻⁶ cm/s] |
| --- | --- | --- | --- | --- | --- |
| 99 | 0.54 × 10^-6 cm/s | O=c1[nH]c2cc([C@@H](O)CNCCOc3ccc4c(c3)[nH]c3ccccc34)ccc2o1 [Example 10, (R)-5-[2-[2-(9H-carbazol-2-yloxy)ethylamino]-1-hydroxyethyl]-3-hydrobenzoxazol-2-one] | 170 |  |  |
|  |  | CS(=O)(=O)N1CCCOc2ccc([C@@H](O)CNCCOc3ccc4c(c3)[nH]c3ccccc34)cc21 [Example 4, (R)-7-[2-[2-(9H-carbazol-2-yloxy)ethylamino]-1-hydroxyethyl]-5-(methylsulfonyl)-2H,3H,4H-benzo[b]1,4-oxazepine] | 620 | 107 | 1.93 |
|  |  | CS(=O)(=O)N1COc2ccc([C@@H](O)CNCCOc3ccc4c(c3)[nH]c3ccccc34)cc21 [Example 3, (R)-5-[2-[2-(9H-carbazol-2-yloxy)ethylamino]-1-hydroxyethyl]-3-(methylsulfonyl)-2,3-dihydrobenzoxazole] | 65 | 70 | 1.03 |
|  |  | CS(=O)(=O)N1CCOc2ccc([C@@H](O)CNCCOc3ccc4c(c3)[nH]c3ccccc34)cc21 [Example 2, (R)-6-[2-[2-(9H-carbazol-2-yloxy)ethylamino]-1-hydroxyethyl]-4-(methylsulfonyl)-2,3-dihydro-1,4-benzoxazine] | 12 | 69 | 0.93 |
| 76 | 0.78 × 10^-6 cm/s | CN(C)S(=O)(=O)n1c(=O)oc2ccc([C@@H](O)CNCCOc3ccc4c(c3)[nH]c3ccccc34)cc21 [Example 7, (R)-3-[(dimethylamino)sulfonyl]-5-[2-[2-(9H-carbazol-2-yloxy)ethylamino]-1-hydroxyethyl]-3-hydrobenzoxazol-2-one] | 100 |  |  |
|  |  | CN(C)S(=O)(=O)n1c(=S)oc2ccc([C@@H](O)CNCCOc3ccc4c(c3)[nH]c3ccccc34)cc21 [Example 8, (R)-3-[(dimethylamino)sulfonyl]-5-[2-[2-(9H-carbazol-2-yloxy)ethylamino]-1-hydroxyethyl]-3-hydrobenzoxazol-2-thione] | 610 | 99 |  |

| Compound | *Intrinsic Activity (%) (human β3) | Permeability Coefficient Papp × 10^-6 (cm/s) (Caco-2 cell) | EC50 (human β3) [nM] | Emax (human β3) [%] | Papp A→B [1] [×10⁻⁶ cm/s] |
| --- | --- | --- | --- | --- | --- |
| CC(C)NCC(O)c1ccc(O)c(O)c1 (stereo not drawn) [Isoproterenol, reference compound] | 100 |  |  |  |  |
